Source: patent US10413593B2 (priority 2014, dated 2019)

Experiments:
[1] = Cumulative body weight change in DIO mice, daily s.c. dosing for nine days (Example 18, FIG. 1); type: in vivo, mice (strain C57Bl6/NTac); details: 9 nmol/kg s.c. daily, day 9
Experimental: Mice were administered a vehicle control or a dose of a peptide daily for nine days. […] The peptide of SEQ ID NO: 9 was administered at doses of 9 and 25 nmol/kg. Cumulative body weight change (grams) was measured each day of the study except on day 3. Results are shown in FIG. 1 and are expressed as mean±SEM.

[2] = Second study in DIO mice: body weight change percent relative to vehicle (Example 19, FIG. 2); type: in vivo, mice (strain C57Bl6/NTac); details: 3 nmol/kg daily, eight days
Experimental: In addition, the peptide of SEQ ID NO: 8 was administered at 15 nmol/kg, while the peptide of SEQ ID NOs: 10 and 11 were administered at 3 nmol/kg. Body weight was measured daily for eight days and body weight change is expressed as percent relative to vehicle (FIG. 2).

[3] = Cumulative food intake in DIO mice (Example 20, FIG. 3); details: 3 nmol/kg, after 8 days of dosing
From the text: For the studies in Examples 18, 19, 20, and 21, diet induced obesity (DIO) mice (strain C57Bl6/NTac; 20 weeks on a high fat diet, about 47 g) were divided into groups of eight mice per group and the initial average body weight, food intake and basal glucose of each group were matched before peptide administration. Each group of mice was subcutaneously injected daily with a dose of Co-agonist Peptide or vehicle control for 7 to 10 days. The peptides tested in this study were Co-agonist Peptides 1, 2, 3, 4, 5, and 6 (SEQ ID NOs: 6, 7, 8, 9, 10, and 11, respectively) at the doses that varied from 3 nmol/kg to 25 nmol/kg. Body weight, food intake and basal glucose were measured periodically during treatment.

CCCCCCCCCCCCCCCC(=O)N[C@@H](CCC(=O)N[C@@H](CCC(=O)NCCCC[C@H](NC(=O)[C@H](CC(=O)O)NC(=O)[C@H](CO)NC(=O)[C@@H](NC(=O)[C@H](Cc1ccccc1)NC(=O)[C@@H](NC(=O)CNC(=O)[C@H](CCC(N)=O)NC(=O)[C@@H](CO)NC(=O)[C@@H](N)Cc1c[nH]cn1)[C@@H](C)O)[C@@H](C)O)C(=O)N[C@@H](CO)C(=O)N[C@@H](CCCCN)C(=O)N[C@@H](Cc1ccc(O)cc1)C(=O)N[C@@H](CC(C)C)C(=O)N[C@@H](CC(=O)O)C(=O)N[C@@H](C)C(=O)N[C@@H](CCCNC(=N)N)C(=O)N[C@@H](C)C(=O)N[C@@H](C)C(=O)N[C@@H](CCC(N)=O)C(=O)N[C@@H](CC(=O)O)C(=O)N[C@@H](Cc1ccccc1)C(=O)N[C@H](C(=O)N[C@@H](CCC(N)=O)C(=O)N[C@@H](Cc1c[nH]c2ccccc12)C(=O)N[C@@H](CC(C)C)C(=O)N[C@@H](CC(C)C)C(=O)N[C@@H](CC(=O)O)C(=O)N[C@H](C(N)=O)[C@@H](C)O)C(C)C)C(=O)O)C(=O)O [SEQ ID NO: 10]
body weight loss [1]: approximately 13 grams
weight loss, percent relative to vehicle [2]: approximately 17%
change in food intake vs vehicle [3]: significant suppression of food intake
